Test results published in paper PMC5041131, “Bacteroides intestinalis DSM 17393, a member of the human colonic microbiome, upregulates multiple endoxylanases during growth on xylan” (Scientific Reports, 2016).

Biological target: T1, BiXyl43A (Bacteroides intestinalis, UniProt B3CES2)
T1 construct: gene BACINT_04203; GH43 module without signal peptide; N-terminal 6His tag (pET-46 Ek/LIC), E. coli BL21-CodonPlus(DE3)-RIL; IMAC and size exclusion
T1 sequence (B3CES2 1-325): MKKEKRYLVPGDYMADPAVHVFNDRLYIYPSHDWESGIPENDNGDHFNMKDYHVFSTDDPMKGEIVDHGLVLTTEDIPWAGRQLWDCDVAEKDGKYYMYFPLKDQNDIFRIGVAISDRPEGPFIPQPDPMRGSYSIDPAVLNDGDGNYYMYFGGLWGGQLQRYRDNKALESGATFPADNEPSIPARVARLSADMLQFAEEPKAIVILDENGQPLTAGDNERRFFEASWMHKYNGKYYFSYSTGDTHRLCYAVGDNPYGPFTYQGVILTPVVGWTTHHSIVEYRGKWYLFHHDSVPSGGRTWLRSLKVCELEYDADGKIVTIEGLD
Assay: HPAEC-PAD of hydrolysis products
Format: biochemical
Details: pH […] sodium phosphate, […] NaCl, […] °C, […] min; […] substrate, […] enzyme

SMILES | HPAEC-PAD of hydrolysis products
OC1OC[C@@H](O[C@@H]2OC[C@@H](O)[C@H](O)[C@H]2O)[C@H](O)[C@H]1O (some centres unmarked) [X2, xylobiose] | xylo-oligosaccharides ranging from xylobiose to xylohexaose led to cleavage or hydrolysis to their unit sugar
OC1OC[C@@H](O[C@@H]2OC[C@@H](O[C@@H]3OC[C@@H](O)[C@H](O)[C@H]3O)[C@H](O)[C@H]2O)[C@H](O)[C@H]1O (some centres unmarked) [X3, xylotriose] | BiXyl43A against xylo-oligosaccharides (xylobiose, X2; xylotriose, X3; xylotetraose, X4
